Data as given in patent US7718641B2, “Pyrrolo [3,4-H] isoquinoline compounds and methods for modulating gated ion channels” (Aros Pharma ApS, priority 2005, dated 2010).

Key:
[1] = target: T1, hASIC1a (Homo sapiens, UniProt P78348); test: Whole-cell patch clamp of HEK293 cells expressing homomeric hASIC1a; assay type: cell-based; design: expressed in transfected cells; host or cells: HEK293; settings: 10 μM, HEK293, -60 mV, pH 7.4 to pH 6.5 for 5 sec, n=3
T1 sequence (P78348 1-528): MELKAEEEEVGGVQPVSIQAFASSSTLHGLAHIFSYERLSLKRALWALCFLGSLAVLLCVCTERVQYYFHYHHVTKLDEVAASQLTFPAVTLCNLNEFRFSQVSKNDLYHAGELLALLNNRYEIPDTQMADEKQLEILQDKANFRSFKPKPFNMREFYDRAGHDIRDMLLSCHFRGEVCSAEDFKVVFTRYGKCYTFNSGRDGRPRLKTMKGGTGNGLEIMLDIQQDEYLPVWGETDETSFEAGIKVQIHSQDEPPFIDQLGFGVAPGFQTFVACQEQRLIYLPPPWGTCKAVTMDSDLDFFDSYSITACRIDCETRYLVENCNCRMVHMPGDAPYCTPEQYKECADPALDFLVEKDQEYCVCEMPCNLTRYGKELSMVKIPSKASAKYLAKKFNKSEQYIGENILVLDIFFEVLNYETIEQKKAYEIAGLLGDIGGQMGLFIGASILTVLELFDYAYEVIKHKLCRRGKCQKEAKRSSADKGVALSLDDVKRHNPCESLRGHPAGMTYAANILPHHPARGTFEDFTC
Protocol: HEK293 cells were transfected either with hASIC1a alone or co-transfected with hASIC1a and hASIC3. Acid-induced inward currents were recorded in the presence and absence of compound A (10 μM) using the whole-cell configuration of the patch-clamp method (voltage clamp mode).
All experiments are performed at room temperature (20-25° C.) in voltage clamp using conventional whole cell patch clamp methods (Neher, E., et al. (1978) Pfluegers Arch 375:219-228).
Coverslips with the cells are transferred to a 15 μl experimental chamber mounted on the stage of an inverted microscope (IMT-2, Olympus) supplied with Nomarski optics. […] The cells are held at a holding voltage of −60 mV and at the start of each experiment the current is continuously measured for 45 s to ensure a stable baseline. […] Current amplitudes are measured at the peak of the responses, and effect of the compounds is calculated as the amplitude at compound equilibrium divided by the amplitude of the current evoked by the pulse just before the compound was included. […]
FIGS. 4A and 4B show response to acidic saline in the absence or presence of 10 μM of Compound A recorded from HEK293 cells expressing either hASIC1a alone or HEK293 cells co-expressing hASIC1a and hASIC3 [voltage clamped at −60 mV, extracellular solution surrounding cells was changed rapidly from pH 7.4 to pH 6.5 for 5 sec] […]

[2] = target: T2, homomeric hASIC1a (Homo sapiens, UniProt P78348); test: Two-electrode voltage clamp in Xenopus laevis oocytes expressing homomeric hASIC1a; assay type: cell-based; settings: 30 μM, OpusExpress
T2 construct: expressed in transfected cells; host or cells: Xenopus laevis oocytes (nuclear cDNA microinjection)
T2 sequence (P78348 1-528): T1 sequence (P78348 1-528)
Protocol: Two-electrode voltage clamp electrophysiological assays in Xenopus laevis oocytes expressing gated ion channels are performed as follows:
Oocytes are surgically removed from adult Xenopus laevis and treated for 2 h at room temperature with 1 mg/ml type I collagenase (Sigma) in Barth's solution under mild agitation. Selected oocytes at stage IV-V are defolliculated manually before nuclear microinjection of 2.5-5 ng of a suitable expression vector, such as pcDNA3, comprising the nucleotide sequence encoding a gated ion channel subunit protein. In such an experiment, the oocytes express homomultimeric proton-gated ion channels on their surface. In an alternate experiment, one, two, three or more vectors comprising the coding sequences for distinct gated ion channel subunits are co-injected in the oocyte nuclei. […] After 2-4 days of expression at 19° C. in Barth's solution containing […] gentamicin and 1.8 mM CaCl2, gated ion channels are activated by applying an acidic solution (pH <7) and currents are recorded in a two electrode voltage-clamp configuration, using an OC-725B amplifier (Warner Instruments). Currents are acquired and digitized at 500 Hz on an Apple Imac G3 computer with an A/D NB-MIO-16XL interface (National Instruments) and recorded traces are post-filtered at 100 Hz in Axograph (Axon Instruments) (Neher, E. and Sakmann, B. (1976) Nature 260:799-802). […]

SMILES: COc1ccc(F)cc1-c1cc2c(c3c1CCN(C)C3)NC(=O)/C2=N/O [Compound A, 5-(5-fluoro-2-methoxyphenyl)-6,7,8,9-tetrahydro-3-(hydroxyimino)-8-methyl-1H-pyrrolo[3,2-h]isoquinoline-2(3H)-one]
- effect on acid-induced inward current, hASIC1a alone [1]: effectively modulates the activity
- effect on inward currents elicited by pH 6.5, homomeric hASIC1a [2]: effectively modulates the activity
